The supplement of paper PMC10307832

Legend:
Assay in all cases: relative viability (nuclei count vs DMSO), 5 days (fraction); higher = more cells survive
[1] = compound: CC1=CC=C(C=C1)C(=O)CN2C3=C(CCCC3)SC2=N [Pifithrin_alpha] + Cc1nc(Nc2ncc(C(=O)Nc3c(C)cccc3Cl)s2)cc(N2CCN(CCO)CC2)n1 [Dasatinib] (partner 0.075 µM)
Procedure, shortened: (§1)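 Relative viability is defined as nuclei in treated wells over nuclei in vehicle wells. Duplicate plates were run and medians reported. Lung cancer cell lines in 1536-well plates were dosed by pin tool one day after seeding, with one drug or with a fixed anchor-drug dose plus five library-drug doses (not always all listed) in √10 steps, and nuclei were counted after 5 days.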

Axitinib + Pictilisib = compound: CNC(=O)c1ccccc1Sc1ccc2c(/C=C/c3ccccn3)n[nH]c2c1 [Axitinib] + CS(=O)(=O)N1CCN(Cc2cc3nc(-c4cccc5[nH]ncc45)nc(N4CCOCC4)c3s2)CC1 [Pictilisib] (partner 1 µM)
Procedure, shortened: as §1

Bemcentinib + Luminespib = compound: Nc1nc(Nc2ccc3c(c2)CC[C@@H](N2CCCC2)CC3)nn1-c1cc2c(nn1)-c1ccccc1CCC2 [Bemcentinib] + CCNC(=O)c1noc(-c2cc(C(C)C)c(O)cc2O)c1-c1ccc(CN2CCOCC2)cc1 [Luminespib] (partner 0.01 µM)
Procedure, shortened: as §1

Bemcentinib + Lapatinib = compound: Nc1nc(Nc2ccc3c(c2)CC[C@@H](N2CCCC2)CC3)nn1-c1cc2c(nn1)-c1ccccc1CCC2 [Bemcentinib] + CS(=O)(=O)CCNCc1ccc(-c2ccc3ncnc(Nc4ccc(OCc5cccc(F)c5)c(Cl)c4)c3c2)o1 [Lapatinib] (partner 2 µM)
Procedure, shortened: as §1

| Cell Line | relative viability ([1]; first compound 1 µM) | relative viability ([1]; first compound 3.162 µM) | relative viability ([1]; first compound 10 µM) | relative viability ([1]; first compound 31.62 µM) | relative viability ([1]; first compound 100 µM) | relative viability (Axitinib + Pictilisib; first compound 0.005 µM) | relative viability (Axitinib + Pictilisib; first compound 0.01581 µM) | relative viability (Axitinib + Pictilisib; first compound 0.05 µM) | relative viability (Axitinib + Pictilisib; first compound 0.1581 µM) | relative viability (Axitinib + Pictilisib; first compound 0.5 µM) | relative viability (Bemcentinib + Luminespib; first compound 0.04 µM) | relative viability (Bemcentinib + Luminespib; first compound 0.1265 µM) | relative viability (Bemcentinib + Luminespib; first compound 0.4 µM) | relative viability (Bemcentinib + Luminespib; first compound 1.265 µM) | relative viability (Bemcentinib + Luminespib; first compound 4 µM) | relative viability (Bemcentinib + Lapatinib; first compound 0.04 µM) | relative viability (Bemcentinib + Lapatinib; first compound 0.1265 µM) | relative viability (Bemcentinib + Lapatinib; first compound 0.4 µM) | relative viability (Bemcentinib + Lapatinib; first compound 1.265 µM) | relative viability (Bemcentinib + Lapatinib; first compound 4 µM) |
| --- | --- | --- | --- | --- | --- | --- | --- | --- | --- | --- | --- | --- | --- | --- | --- | --- | --- | --- | --- | --- |
| 201T | 0.47 | 0.337 | 0.431 | 0.392 | 0.399 | 0.671 | 0.69 | 0.662 | 0.675 | 0.675 | 1.07 | 1.05 | 1.14 | 1.07 | 1.14 | 1 | 1.02 | 1.02 | 1.03 | 1.06 |
| NCI-H2085 | 0.205 | 0.262 | 0.222 | 0.268 | 0.174 | 0.457 | 0.467 | 0.441 | 0.507 | 0.373 | 0.447 | 0.448 | 0.435 | 0.471 | 0.449 | 0.625 | 0.805 | 0.756 | 0.74 | 0.721 |
| NCI-H1395 | 0.407 | 0.419 | 0.371 | 0.399 | 0.386 | 0.612 | 0.559 | 0.634 | 0.528 | 0.684 | 0.611 | 0.733 | 0.808 | 0.686 | 1 | 0.95 | 1.19 | 0.999 | 1.06 | 0.897 |
| NCI-H2405 | 0.156 | 0.197 | 0.205 | 0.188 | 0.196 | 0.422 | 0.534 | 0.658 | 0.465 | 0.383 | 0.659 | 0.716 | 0.609 | 0.754 | 0.656 | 0.86 | 1.16 | 1.05 | 1.1 | 1.03 |
| NCI-H1650 | – | 0.242 | 0.246 | 0.25 | 0.212 | 0.624 | 0.36 | 0.644 | 0.529 | 0.585 | 0.207 | 0.237 | 0.199 | 0.236 | 0.186 | 0.7 | 0.817 | 0.74 | 0.921 | 0.79 |
| EMC-BAC-2 | 0.311 | 0.319 | 0.298 | – | 0.311 | 0.569 | 0.533 | 0.534 | 0.555 | 0.529 | 1.24 | 1.29 | 1.16 | 1.19 | 1.2 | 0.917 | 0.959 | 0.957 | 0.878 | 0.898 |
| BEN | 0.217 | 0.36 | 0.373 | 0.343 | 0.299 | 0.547 | 0.536 | 0.533 | 0.516 | 0.515 | 0.178 | 0.395 | 0.563 | 0.199 | 0.236 | 0.488 | 0.844 | 0.807 | 0.531 | 0.734 |
| NCI-H1755 | 0.39 | 0.622 | 0.391 | 0.362 | 0.401 | 0.482 | 0.418 | 0.55 | 0.4 | 0.454 | 0.742 | 0.52 | 0.617 | 0.34 | 0.418 | 1.11 | 1.23 | 1.01 | 0.996 | 1.01 |
| LU99A | 0.385 | 0.651 | 0.609 | 0.369 | 0.583 | 0.355 | 0.349 | 0.336 | 0.363 | 0.306 | 0.19 | 0.289 | 0.234 | 0.346 | 0.24 | 0.961 | 1.26 | 1.15 | 0.961 | 0.893 |
| NCI-H1793 | – | 0.466 | 0.4 | 0.403 | 0.393 | 0.258 | 0.253 | 0.326 | 0.307 | 0.256 | 0.211 | 0.179 | 0.169 | – | 0.18 | 0.488 | 0.621 | 0.693 | 0.582 | 0.75 |
| NCI-H460 | 0.433 | 0.414 | 0.35 | 0.31 | 0.266 | 0.403 | 0.443 | 0.333 | 0.323 | 0.327 | 0.0301 | 0.0417 | 0.0326 | 0.0332 | 0.0269 | 0.931 | 1.46 | 1.3 | 1.14 | 1.12 |
| SK-LU-1 | 0.175 | 0.193 | 0.181 | – | 0.168 | 0.553 | 0.569 | 0.558 | 0.567 | 0.659 | 0.204 | 0.202 | 0.196 | 0.192 | 0.198 | 0.806 | 0.888 | 0.865 | 0.964 | 0.904 |
| HARA | – | 0.256 | 0.257 | – | 0.268 | 0.324 | 0.401 | 0.545 | 0.364 | 0.281 | 0.603 | 0.983 | 0.719 | 1.03 | 0.597 | 0.668 | 0.928 | 0.788 | 0.865 | 0.469 |
| ABC-1 | 0.413 | 0.439 | 0.435 | 0.398 | 0.453 | 0.716 | 0.773 | 0.812 | 0.658 | 0.834 | 0.456 | 0.682 | 0.801 | 1.02 | 0.741 | 1.33 | 1.36 | 1.33 | 0.998 | 1.26 |
